According to patent US7091357B2, “Chain-modified pyridino-N substituted nicotine compounds for use in the treatment of CNS pathologies” (University of Kentucky Research Foundation, priority 2001, dated 2006):
pIC50, pKi: −log10 of the molar value. Counter-ions that a name gives are not always drawn. Like-named read-outs stand apart in the source and are kept apart here.

What was measured:
[1] = biological target: T1, Rat Striatal Nicotinic Acetylcholine Receptors (Rattus norvegicus, UniProt P09483+P12390); test: [3H]-NIC binding assay, rat striatal membranes; conditions: 3 nM [3H]-NIC, at least 3 independent experiments, read-out: Ki, displacement of [3H]-NIC binding
T1 construct: from tissue; host or cells: rat striatal membranes
Description: Striata from two rats were dissected, pooled, and homogenized with a Tekmar polytron in 10 volumes of ice-cold modified Krebs-HEPES buffer (20 mM HEPES, 118 mM NaCl, 4.8 mM KCl, 2.5 mM CaCl2, 1.2 mM MgSO4, adjusted to pH 7.5). The homogenates were incubated at 37° C. for 5 minutes and centrifuged at 15,000 g for 20 minutes. The pellet was resuspended in 10 volumes of ice-cold MilliQ water, incubated for 5 minutes at 37° C., and centrifuged at 15,000 g for 20 mm. The second pellet was then resuspended in 10 volumes of fresh ice-cold 10% Krebs-HEPES buffer, incubated at 37° C., and centrifuged at 15,000 g for 20 minutes. The latter sequence of resuspension, incubation, and rentrifugation was repeated. The pellet was frozen under fresh 10% Krebs-HEPES buffer and stored at −40° C. until assayed. Upon assay, the pellet was resuspended in the Krebs-HEPES buffer, incubated at 37° C. for 5 minutes, and centrifuged at 15,000 g for 20 mm. The final pellet was resuspended in 3.6 ml ice-cold MilliQ water which provided for approximately 200 μg protein per 100 μl aliquot. Competition assays were performed in triplicate in a final volume of 200 μl Krebs-HEPES buffer containing 250 mmol Tris buffer (pH 7.5 at 4° C.). […] After a 90 min incubation at 4° C., reactions were terminated by dilution of the samples with 3 ml of ice-cold Krebs-HEPES buffer followed immediately by filtration through Whatman GF/B glass fiber filters (presoaked in 0.5% polyethyleneimine) using a Brandel Cell Harvester. Filters were rinsed three times with 3 ml of ice-cold Krebs-HEPES buffer, transferred to scintillation vials, and 5 ml scintillation cocktail (Research Products International Corp., Mt. Prospect, Ill.) added. Nonspecific binding determined in triplicate was defined as binding in the presence of 10 μM NIC. Binding parameters were determined using the weighted, least squares nonlinear regression analysis.

[2] = biological target: T2, α7 neuronal nicotinic acetylcholine receptor subtype (Rattus norvegicus, UniProt Q05941); test: [3H]-MLA binding assay, rat brain membranes; conditions: read-out: Ki, displacement of [3H]-MLA binding
T2 construct: from tissue; host or cells: rat brain membranes (without cortex, striatum and cerebellum)
Description: Rat brain tissue (without cortex, striatum and cerebellum) was homogenized with a Tekmar Polytron (setting 40) in 20 volumes of ice-cold hypotonic buffer (2 mM HEPES, 14.4 mM NaCl, 0.15 mM KCl, 0.2 mM CaCl2 and 0.1 mM MgSO4, pH=7.5). The homogenate was incubated at 37° C. for 10 minutes and centrifuged at 25,000×g for 15 minutes at 40° C. The pellet was washed 3 times more by resuspension in the 20 volumes of the same buffer and centrifugation at the above parameters. The final pellet was stored at −20° C. under 4.6 ml of the incubation buffer and was suspended just before the incubation with radioligand.
The binding of [^3H]methyllycaconitine ([^3H]MLA), a probe for the α7 neuronal nicotinic acetylcholine receptor subtype, was determined using a modification of the method of Davies et al., “Characterisation of the binding of [^3H]methyllycaconitine: a new radioligand for labelling α7-type neuronal nicotinic acetylcholine receptors”, Neuropharmacology, 38, 679–690 (1999). [^3H]-MLA (25.4 Ci/mmol) was purchased from Tocris Cookson Ltd., Bristol, U.K. Binding was performed in duplicate, in a final volume of 250 μL of the incubation medium, containing 20 mM HEPES, 144 mM NaCl, 1.5 mM KCl, 2 mM CaCl2, 1 mM MgSO4 and 0.05% BSA, pH=7.5. Reaction was initiated by the addition of 100 μl of membrane suspension to the samples containing a desired concentration of test compounds and 2.5 nM [^3H]-MLA (final concentration) and incubated for 2 hours at room temperature. Total binding was measured in the absence of unlabelled ligand, and nonspecific binding was determined in the presence of 1 μM unlabelled MLA. The binding reaction was terminated by dilution of samples with 3 ml of ice-cold incubation buffer followed by immediate filtration through presoaked in 0.5% polyethylenimine glass fiber filters (S&S, grade #32) using a Brandel harvester system. Filters were rinsed three times with 3 ml of ice-cold buffer, transferred to scintillation vials and 4 ml of scintillation cocktail was added.

[3] = test system: putative α3β2* receptor subtype; test: Inhibition of S-(−)-NIC-evoked [3H]-DA release from rat striatal slices; assay type: cell-based; conditions: rat striatal slices superfused 60 minutes with analog prior to NIC (10 μM)
Description: Rat striatal slices (500 μm thickness, 6–8 mg wet weight) were incubated for 30 minutes in Kreb's buffer (118 mM NaCl, 4.7 mMKCl, 1.2 mM MgCl2, 1.0 mM NaH2PO4, 1.3 mM CaCl2, 11.1 mM glucose, 25 mM NaHCO3, 0.11 mM L-ascorbic acid, and 0.004 mM disodium EDTA; pH 7.4, and saturated with 95% O2/5% CO2) in a metabolic shaker at 34° C. Slices were rinsed with 15 ml of fresh buffer and incubated for an additional 30 minutes in fresh buffer containing 0.1 μM [^3]H-DA (6 slices/3 ml). Subsequently, slices were rinsed with 15 ml of fresh buffer and transferred to a glass superfusion chamber. Slices were superfused (1.0 ml/min) for 60 minutes with Kreb's buffer containing nomifensine (10 μM) and pargyline (10 μM) and maintained at 34° C., pH 7.4, with continual aeration (95% O2/5% CO2). Two five minute samples (5 ml each) were collected to determine basal outflow of [^3H]-DA. […] Subsequently, S-(−)-nicotine (10 μM) was added to the buffer and an additional 12 consecutive five minute samples were collected. At the end of the experiment, each slice was solubilized and the [^3H] content of the tissue determined.
Radioactivity in the superfusate and tissue samples was determined by liquid scintillation spectroscopy. Fractional release for each sample was calculated by dividing by the total tritium present in the tissue at the time of sample collection, and was expressed as a percentage of total tissue tritium. […] The sum of the increase in collected tritium resulting from either exposure to the test-compound or exposure to nicotine in the absence and presence of the test compound equaled total [^3H]overflow. [^3H]Overflow was calculated by subtracting the [^3H]outflow during an equivalent period of prestimulation from the values in samples collected during and after drug exposure. Inasmuch as the radiolabelled compounds were not separated and identified, the tritium collected in superfusate is referred to as either [^3H]outflow or [^3 H]overflow, rather than as [^3H]-DA. [^3H]Overflow primarily represents [^3H]-DA in the presence of nomifensine and pargyline in the superfusion buffer.
In these experiments, striatal slices were superfused for 60 minutes with various concentrations of the analogs prior to NIC (10 μM) exposure. Antagonist activity was evaluated by comparing the NIC-evoked [^3H]overflow in the absence and presence of the analogs.

[4] = rat brain membranes, 2.5 nM [3H]-MLA

T1 sequence (P09483 31-630): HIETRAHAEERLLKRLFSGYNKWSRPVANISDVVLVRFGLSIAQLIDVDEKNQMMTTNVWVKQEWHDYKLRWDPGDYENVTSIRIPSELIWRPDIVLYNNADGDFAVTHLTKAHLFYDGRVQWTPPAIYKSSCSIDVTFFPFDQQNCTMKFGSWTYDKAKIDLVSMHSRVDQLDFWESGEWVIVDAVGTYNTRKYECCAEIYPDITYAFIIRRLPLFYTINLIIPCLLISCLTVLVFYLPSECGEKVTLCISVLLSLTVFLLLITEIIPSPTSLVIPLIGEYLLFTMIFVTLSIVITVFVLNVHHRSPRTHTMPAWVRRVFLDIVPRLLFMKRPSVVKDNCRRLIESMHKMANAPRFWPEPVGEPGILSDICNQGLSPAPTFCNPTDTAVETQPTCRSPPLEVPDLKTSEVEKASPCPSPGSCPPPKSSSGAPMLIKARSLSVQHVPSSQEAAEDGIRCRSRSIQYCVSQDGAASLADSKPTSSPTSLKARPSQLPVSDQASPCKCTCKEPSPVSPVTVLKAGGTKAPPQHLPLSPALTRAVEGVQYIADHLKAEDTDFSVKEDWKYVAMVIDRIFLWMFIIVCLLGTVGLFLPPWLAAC
T1 sequence (P12390 25-500): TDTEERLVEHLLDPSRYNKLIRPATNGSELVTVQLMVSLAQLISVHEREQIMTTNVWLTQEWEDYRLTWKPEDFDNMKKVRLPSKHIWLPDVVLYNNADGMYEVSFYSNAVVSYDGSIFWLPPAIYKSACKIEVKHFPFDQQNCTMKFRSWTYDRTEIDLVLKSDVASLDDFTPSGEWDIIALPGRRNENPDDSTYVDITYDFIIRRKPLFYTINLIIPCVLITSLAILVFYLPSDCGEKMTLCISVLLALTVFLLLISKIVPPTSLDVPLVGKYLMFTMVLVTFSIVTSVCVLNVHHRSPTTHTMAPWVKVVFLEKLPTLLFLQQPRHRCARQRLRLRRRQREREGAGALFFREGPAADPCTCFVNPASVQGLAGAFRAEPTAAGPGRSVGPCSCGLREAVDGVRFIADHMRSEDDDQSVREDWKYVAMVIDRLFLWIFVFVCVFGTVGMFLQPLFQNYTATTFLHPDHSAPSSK
T2 sequence (Q05941 23-502): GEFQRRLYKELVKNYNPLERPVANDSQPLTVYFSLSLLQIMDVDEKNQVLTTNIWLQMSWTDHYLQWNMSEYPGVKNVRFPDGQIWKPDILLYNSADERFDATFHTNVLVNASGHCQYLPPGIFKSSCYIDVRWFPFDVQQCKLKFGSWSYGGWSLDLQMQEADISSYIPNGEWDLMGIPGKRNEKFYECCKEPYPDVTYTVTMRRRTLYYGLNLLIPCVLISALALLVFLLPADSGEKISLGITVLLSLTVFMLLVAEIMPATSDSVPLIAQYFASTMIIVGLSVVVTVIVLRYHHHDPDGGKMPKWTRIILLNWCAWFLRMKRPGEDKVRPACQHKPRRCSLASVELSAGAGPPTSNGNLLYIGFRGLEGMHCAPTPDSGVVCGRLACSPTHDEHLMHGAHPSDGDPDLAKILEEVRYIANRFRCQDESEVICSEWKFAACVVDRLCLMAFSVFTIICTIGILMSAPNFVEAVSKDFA

Compound	pKi [1]	pKi [2, 4]	pIC50 [3]	pKi [2]
CN1CCC[C@H]1c1ccc[n+](CCCCCCC2CCC2)c1 [NCyNB-4, (S)-1-(6-Cyclobutyl-hexyl)-3-(1-methyl-pyrrolidin-2-yl)pyridinium bromide hydrobromide salt]	5.14	4.52	–	–
CN1CCC[C@H]1c1ccc[n+](CCCCCCC2CCCC2)c1 [NCyNB-5, (S)-1-(6-Cyclopentyl-hexyl)-3-(1-methyl-pyrrolidin-2-yl)-pyridinium bromide hydrobromide salt]	5.26	4.05	–	–
CN1CCC[C@H]1c1ccc[n+](CCCCCCC2CCCCC2)c1 [NCyNB-6, (S)-1-(6-Cyclohexyl-hexyl)-3-(1-methyl-pyrrolidin-2-yl)-pyridinium bromide hydrobromide salt]	5.34	4.37	–	–
CCCCCCC#CCC[n+]1cccc([C@@H]2CCCN2C)c1 [NDNB-3y, (S)-1-Dec-3-ynyl-3-(1-methyl-pyrrolidin-2-yl)-pyridinium bromide]	6.09	–	5.59	–
CCCCC/C=C\CCC[n+]1cccc([C@@H]2CCCN2C)c1 [NDNB-4c, (S)-cis-1-Dec-4-enyl-3-(1-methyl-pyrrolidin-2-yl)-pyridinium bromide hydrobromide salt]	5.11	–	5.83	–
CCCCC/C=C/CCC[n+]1cccc([C@@H]2CCCN2C)c1 [NDNB-4t, (S)-trans-1-Dec-4-enyl-3-(1-methyl-pyrrolidin-2-yl)-pyridinium bromide]	6.49	–	6.48	–
CCCCCCCCCC[n+]1cccc([C@@H]2CCCN2C)c1 [NDNI, N-n-decylnicotinium iodide, reference compound]	7.03	–	< 4.00	–
CCOCCOCC[n+]1cccc([C@@H]2CCCN2C)c1 [NONB-3O6O, (S)-1-[2-(2-Ethoxy-ethoxy)-ethyl]-3-(1-methyl-pyrrolidin-2-yl)-pyridinium bromide]	5.92	–	–	–
CCCC/C=C\CC[n+]1cccc([C@@H]2CCCN2C)c1 [NONB-3c, (S)-cis-3-(1-Methyl-pyrrolidin-2-yl)-1-oct-3-enyl-pyridinium bromide hydrobromide salt]	7.07	–	5.69	–
CCCC/C=C/CC[n+]1cccc([C@@H]2CCCN2C)c1 [NONB-3t, (S)-trans-3-(1-Methyl-pyrrolidin-2-yl)-1-oct-3-enyl-pyridinium bromide hydrobromide salt]	5.40	–	5.46	–
CCCCC#CCC[n+]1cccc([C@@H]2CCCN2C)c1 [NONB-3y, (S)-3-(1-Methyl-pyrrolidin-2-yl)-1-oct-3-ynyl-pyridinium bromide]	6.70	–	5.77	–
CC(C)=CCCCCC[n+]1cccc([C@@H]2CCCN2C)c1 [NONB-6e7M, (S)-1-(7-Methyl-oct-6-enyl)-3-(1-methyl-pyrrolidin-2-yl)-pyridinium bromide hydrobromide]	6.35	–	5.70	–
CC(C)CCCCCC[n+]1cccc([C@@H]2CCCN2C)c1 [NONB-7M, (S)-1-(7-Methyl-octyl)-3-(1-methyl-pyrrolidin-2-yl)-pyridinium bromide hydrobromide salt]	6.36	–	< 4.00	–
C=CCCCCCC[n+]1cccc([C@@H]2CCCN2C)c1 [NONB-7e, (S)-3-(1-Methyl-pyrrolidin-2-yl)-1-oct-7-enyl-pyridinium bromide]	6.35	–	5.58	–
CCCCCCCC[n+]1cccc([C@@H]2CCCN2C)c1 [NONI, N-n-octylnicotinium iodide, reference compound]	–	–	6.21	–
α-Bungarotoxin [reference compound]	–	–	–	8.14
